Measurements from ChEMBL document CHEMBL4049405, “Investigation on cellular uptake and pharmacodynamics of DOCK2-inhibitory peptides conjugated with cell-penetrating peptides” (Bioorg Med Chem, 2017).
Positions of bridges follow the written chain, without caps; N, C: chain ends. Non-standard residues stand in square brackets, D forms with d. Residues, ends and D or L forms follow the SMILES beside them. *: point of attachment. X1 = O=C(OCCCS*)Oc1ccc2nc(C3=N[C@@H](C(=O)O)CS3)sc2c1; X2 = CC(=O)[C@H]1CSC(c2nc3ccc(OC(=O)OCCCS*)cc3s2)=N1; Mpa = O=C(O)CCS

Experiments:
[1] = Drug uptake in HEK293T cells expressing luciferase reporter gene at 50 uM measured every 3 mins for 60 mins by luminescence assay relative to 50 uM luciferin; format: ADME, cell-based; conditions: human, hek-293t, 1 h
[2] = Cytotoxicity against HEK293T cells assessed as cell viability at 50 uM by CellTiter-Glo assay relative to control; conditions: human
in vitro [3] = conditions: human, HEK293T cells
Description: Cytotoxicity against HEK293T cells assessed as cell viability at 6.3 uM by CellTiter-Glo assay relative to control

in vitro [4] = conditions: human, HEK293T cells; remark: listed apart in the source
Description: Cytotoxicity against HEK293T cells assessed as cell viability at 12.5 uM by CellTiter-Glo assay relative to control

in vitro [5] = conditions: human, HEK293T cells; remark: listed apart in the source
Description: Cytotoxicity against HEK293T cells assessed as cell viability at 25 uM by CellTiter-Glo assay relative to control

in vitro [6] = conditions: human, HEK293T cells; remark: listed apart in the source
Description: Cytotoxicity against HEK293T cells assessed as cell viability at 1.9 uM by CellTiter-Glo assay relative to control

in vitro [7] = conditions: human, HEK293T cells; remark: listed apart in the source
Description: Cytotoxicity against HEK293T cells assessed as cell viability at 5.6 uM by CellTiter-Glo assay relative to control

in vitro [8] = conditions: human, HEK293T cells; remark: listed apart in the source
Description: Cytotoxicity against HEK293T cells assessed as cell viability at 16.7 uM by CellTiter-Glo assay relative to control

| SMILES | fold change (FC) [1] | viability at 50 µM [2] [%] | viability at 6.3 µM (in vitro [3]) [%] | viability at 12.5 µM (in vitro [4]) [%] | viability at 25 µM (in vitro [5]) [%] | viability at 1.9 µM (in vitro [6]) [%] | viability at 5.6 µM (in vitro [7]) [%] | viability at 16.7 µM (in vitro [8]) [%] |
| --- | --- | --- | --- | --- | --- | --- | --- | --- |
| CC(=O)N[C@@H](CSSCCCOC(=O)Oc1ccc2nc(C3=N[C@@H](C(C)=O)CS3)sc2c1)C(=O)N[C@H]1CSSC[C@@H](C(=O)N[C@@H](CCCNC(=N)N)C(=O)N[C@@H](CCCNC(=N)N)C(=O)N[C@@H](CCCNC(=N)N)C(=O)N[C@H](C(=O)N[C@@H](CCCNC(=N)N)C(=O)N[C@H](C(=O)N[C@@H](CC(C)C)C(=O)N[C@@H](CCCCN)C(=O)N[C@@H](CCCNC(=N)N)C(=O)N[C@@H](Cc2c[nH]c3ccccc23)C(=O)N[C@@H](CCCCN)C(=O)N[C@@H](CC(C)C)C(=O)N[C@@H](Cc2ccccc2)C(N)=O)C(C)C)[C@@H](C)O)NC(=O)[C@H](Cc2c[nH]c3ccccc23)NC(=O)[C@@H]2CCCN2C(=O)[C@H](Cc2ccc(O)cc2)NC(=O)CNC(=O)[C@H](Cc2cnc[nH]2)NC(=O)[C@H](Cc2ccc(O)cc2)NC(=O)[C@H](CCCCN)NC(=O)[C@H](C)NC(=O)[C@H](C(C)C)NC1=O (Ac-C(X2)CVAKYHGYPWCRRRTRVLKRWKLF-NH2; disulfide 2-12) | 66.8 | 85.9 | 99.1 | 108 | 97.1 |  |  |  |
| CC(=O)N[C@@H](CSSCCCOC(=O)Oc1ccc2nc(C3=N[C@@H](C(C)=O)CS3)sc2c1)C(=O)N[C@H]1CSSC[C@@H](C(=O)N[C@@H](CCCNC(=N)N)C(=O)N[C@@H](CCCNC(=N)N)C(=O)N[C@@H](CCCNC(=N)N)C(N)=O)NC(=O)[C@H](Cc2c[nH]c3ccccc23)NC(=O)[C@@H]2CCCN2C(=O)[C@H](Cc2ccc(O)cc2)NC(=O)CNC(=O)[C@H](Cc2cnc[nH]2)NC(=O)[C@H](Cc2ccc(O)cc2)NC(=O)[C@H](CCCCN)NC(=O)[C@H](C)NC(=O)[C@H](C(C)C)NC1=O (Ac-C(X2)CVAKYHGYPWCRRR-NH2; disulfide 2-12) | 22.8 | 126 | 105 | 112 | 115 |  |  |  |
| CC(C)C[C@H](NC(=O)CCSSCCCOC(=O)Oc1ccc2nc(C3=N[C@@H](C(=O)O)CS3)sc2c1)C(=O)N[C@@H](CCCCN)C(=O)N[C@@H](CCCNC(=N)N)C(=O)N[C@@H](Cc1c[nH]c2ccccc12)C(=O)N[C@@H](CCCCN)C(=O)N[C@@H](CC(C)C)C(=O)N[C@@H](Cc1ccccc1)C(=O)N[C@@H](CC(N)=O)C(=O)N[C@@H](CCCCN)C(=O)N[C@@H](CCC(N)=O)C(N)=O ([Mpa](X1)LKRWKLFNKQ-NH2) | 34.5 | 94 |  |  |  | 94.2 | 93.7 | 88.1 |
| CC(C)C[C@H](NC(=O)[C@H](CCCCN)NC(=O)[C@H](Cc1c[nH]c2ccccc12)NC(=O)[C@H](CCCNC(=N)N)NC(=O)CCSSCCCOC(=O)Oc1ccc2nc(C3=N[C@@H](C(=O)O)CS3)sc2c1)C(=O)N[C@@H](Cc1ccccc1)C(=O)N[C@@H](CC(N)=O)C(=O)N[C@@H](CCCCN)C(=O)N[C@@H](CCC(N)=O)C(=O)N[C@@H](CCC(=O)O)C(=O)N[C@@H](Cc1c[nH]c2ccccc12)C(N)=O ([Mpa](X1)RWKLFNKQEW-NH2) | 18.2 | 102 |  |  |  | 92.3 | 93.6 | 92.8 |
| CC(C)C[C@H](NC(=O)[C@H](CCCCN)NC(=O)[C@H](Cc1c[nH]c2ccccc12)NC(=O)CCSSCCCOC(=O)Oc1ccc2nc(C3=N[C@@H](C(=O)O)CS3)sc2c1)C(=O)N[C@@H](Cc1ccccc1)C(=O)N[C@@H](CC(N)=O)C(=O)N[C@@H](CCCCN)C(=O)N[C@@H](CCC(N)=O)C(=O)N[C@@H](CCC(=O)O)C(=O)N[C@@H](Cc1c[nH]c2ccccc12)C(=O)N[C@H](C(N)=O)[C@@H](C)O ([Mpa](X1)WKLFNKQEWT-NH2) | 14.7 | 102 |  |  |  | 100 | 99.6 | 104 |
| CC(C)C[C@H](NC(=O)[C@H](CCCCN)NC(=O)CCSSCCCOC(=O)Oc1ccc2nc(C3=N[C@@H](C(=O)O)CS3)sc2c1)C(=O)N[C@@H](Cc1ccccc1)C(=O)N[C@@H](CC(N)=O)C(=O)N[C@@H](CCCCN)C(=O)N[C@@H](CCC(N)=O)C(=O)N[C@@H](CCC(=O)O)C(=O)N[C@@H](Cc1c[nH]c2ccccc12)C(=O)N[C@H](C(=O)N[C@@H](CC(N)=O)C(N)=O)[C@@H](C)O ([Mpa](X1)KLFNKQEWTN-NH2) | 9.7 | 99.4 |  |  |  | 93 | 98.8 | 97.6 |
| CC(C)C[C@H](NC(=O)[C@H](CCCCN)NC(=O)[C@H](Cc1c[nH]c2ccccc12)NC(=O)[C@H](CCCNC(=N)N)NC(=O)[C@H](CCCCN)NC(=O)[C@H](CC(C)C)NC(=O)[C@@H](NC(=O)CCSSCCCOC(=O)Oc1ccc2nc(C3=N[C@@H](C(=O)O)CS3)sc2c1)C(C)C)C(=O)N[C@@H](Cc1ccccc1)C(=O)N[C@@H](CC(N)=O)C(=O)N[C@@H](CCCCN)C(N)=O ([Mpa](X1)VLKRWKLFNK-NH2) | 30.3 | 95.9 |  |  |  | 88.6 | 98.5 | 99.6 |
| CC(C)C[C@H](NC(=O)[C@H](CCCCN)NC(=O)[C@H](Cc1c[nH]c2ccccc12)NC(=O)[C@H](CCCNC(=N)N)NC(=O)[C@H](CCCCN)NC(=O)[C@H](CC(C)C)NC(=O)[C@@H](NC(=O)[C@H](CCCNC(=N)N)NC(=O)CCSSCCCOC(=O)Oc1ccc2nc(C3=N[C@@H](C(=O)O)CS3)sc2c1)C(C)C)C(=O)N[C@@H](Cc1ccccc1)C(=O)N[C@@H](CC(N)=O)C(N)=O ([Mpa](X1)RVLKRWKLFN-NH2) | 198.2 | 86 |  |  |  | 93.5 | 94.4 | 92.5 |
| CC(C)C[C@H](NC(=O)[C@H](CCCCN)NC(=O)[C@H](Cc1c[nH]c2ccccc12)NC(=O)[C@H](CCCNC(=N)N)NC(=O)[C@H](CCCCN)NC(=O)CCSSCCCOC(=O)Oc1ccc2nc(C3=N[C@@H](C(=O)O)CS3)sc2c1)C(=O)N[C@@H](Cc1ccccc1)C(=O)N[C@@H](CC(N)=O)C(=O)N[C@@H](CCCCN)C(=O)N[C@@H](CCC(N)=O)C(=O)N[C@@H](CCC(=O)O)C(N)=O ([Mpa](X1)KRWKLFNKQE-NH2) | 13.6 | 93.8 |  |  |  | 95.8 | 106 | 93.7 |

The next lines start with results.

| fold change (FC) [1] | SMILES | viability at 50 µM [2] [%] | viability at 6.3 µM (in vitro [3]) [%] | viability at 12.5 µM (in vitro [4]) [%] | viability at 25 µM (in vitro [5]) [%] | viability at 1.9 µM (in vitro [6]) [%] | viability at 5.6 µM (in vitro [7]) [%] | viability at 16.7 µM (in vitro [8]) [%] |
| --- | --- | --- | --- | --- | --- | --- | --- | --- |
| 30.1 | CC(C)C[C@H](NC(=O)CCSSCCCOC(=O)Oc1ccc2nc(C3=N[C@@H](C(=O)O)CS3)sc2c1)C(=O)N[C@@H](CCCCN)C(=O)N[C@H](C(=O)N[C@@H](CCCNC(=N)N)C(=O)N[C@H](C(=O)N[C@@H](CC(C)C)C(=O)N[C@@H](CCCCN)C(=O)N[C@@H](CCCNC(=N)N)C(=O)N[C@@H](Cc1c[nH]c2ccccc12)C(=O)N[C@@H](CCCCN)C(N)=O)C(C)C)[C@@H](C)O ([Mpa](X1)LKTRVLKRWK-NH2) | 87.8 |  |  |  | 88.5 | 80 | 79.1 |
| 16.7 | CC(C)C[C@H](NC(=O)[C@H](CO)NC(=O)CCSSCCCOC(=O)Oc1ccc2nc(C3=N[C@@H](C(=O)O)CS3)sc2c1)C(=O)N[C@@H](CCCCN)C(=O)N[C@H](C(=O)N[C@@H](CCCNC(=N)N)C(=O)N[C@H](C(=O)N[C@@H](CC(C)C)C(=O)N[C@@H](CCCCN)C(=O)N[C@@H](CCCNC(=N)N)C(=O)N[C@@H](Cc1c[nH]c2ccccc12)C(N)=O)C(C)C)[C@@H](C)O ([Mpa](X1)SLKTRVLKRW-NH2) | 83.8 |  |  |  | 84 | 89.6 | 84.3 |
| 30.7 | CC(C)C[C@H](NC(=O)[C@H](CCCCN)NC(=O)[C@H](Cc1c[nH]c2ccccc12)NC(=O)[C@H](CCCNC(=N)N)NC(=O)[C@H](CCCCN)NC(=O)[C@H](CC(C)C)NC(=O)[C@@H](NC(=O)[C@H](CCCNC(=N)N)NC(=O)[C@@H](NC(=O)[C@H](CCCCN)NC(=O)CCSSCCCOC(=O)Oc1ccc2nc(C3=N[C@@H](C(=O)O)CS3)sc2c1)[C@@H](C)O)C(C)C)C(N)=O ([Mpa](X1)KTRVLKRWKL-NH2) | 80.1 |  |  |  | 77.7 | 85.3 | 80.5 |
| 216.3 | CC(C)C[C@H](NC(=O)[C@H](CCCCN)NC(=O)[C@H](Cc1c[nH]c2ccccc12)NC(=O)[C@H](CCCNC(=N)N)NC(=O)[C@H](CCCCN)NC(=O)[C@H](CC(C)C)NC(=O)[C@@H](NC(=O)[C@H](CCCNC(=N)N)NC(=O)[C@@H](NC(=O)CCSSCCCOC(=O)Oc1ccc2nc(C3=N[C@@H](C(=O)O)CS3)sc2c1)[C@@H](C)O)C(C)C)C(=O)N[C@@H](Cc1ccccc1)C(N)=O ([Mpa](X1)TRVLKRWKLF-NH2) | 88.5 |  |  |  | 94.3 | 92.4 | 97.3 |
| 11.2 | CC(C)C[C@H](NC(=O)[C@H](CO)NC(=O)CNC(=O)CCSSCCCOC(=O)Oc1ccc2nc(C3=N[C@@H](C(=O)O)CS3)sc2c1)C(=O)N[C@@H](CCCCN)C(=O)N[C@H](C(=O)N[C@@H](CCCNC(=N)N)C(=O)N[C@H](C(=O)N[C@@H](CC(C)C)C(=O)N[C@@H](CCCCN)C(=O)N[C@@H](CCCNC(=N)N)C(N)=O)C(C)C)[C@@H](C)O ([Mpa](X1)GSLKTRVLKR-NH2) | 87 |  |  |  | 101 | 100 | 93.1 |
